In ChEMBL document CHEMBL1201862, “PubChem BioAssay data set” (2004):
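Method: 48-hour compound exposure of cells in 96-well plates, five concentrations, linear interpolation of endpoints. GI50 is the concentration that inhibits growth by half.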 The source made the active and inactive calls. No stated cut-off is given here; in the data, active = GI50 up to about 1.1 µM and inactive = higher.

Tests used:
Assay in all cases: DTP human tumour cell line panel, 48 h
[1] = test system: MDA-MB-435
[2] = test system: ACHN
[3] = test system: NCI-H522
[4] = test system: SNB-19
[5] = test system: RXF 393
[6] = test system: NCI-H226
[7] = test system: MCF7
[8] = test system: SN12C
[9] = test system: A549
[10] = test system: LOX IMVI
[11] = test system: SK-MEL-28
[12] = test system: T47D
[13] = test system: HCT-116
[14] = test system: COLO 205
[15] = test system: HOP-62
[16] = test system: A498
[17] = test system: CAKI-1
[18] = test system: BT-549
[19] = test system: OVCAR-5
[20] = test system: HL-60
[21] = test system: SK-MEL-2
[22] = test system: SR
[23] = test system: HOP-92
[24] = test system: OVCAR-4
[25] = test system: M14
[26] = test system: HT-29
[27] = test system: HCT-15
[28] = test system: Malme-3M
[29] = test system: Hs-578T
[30] = test system: MOLT-4
[31] = test system: RPMI-8226
[32] = test system: UO-31
[33] = test system: UACC-257
[34] = test system: PC-3
[35] = test system: EKVX
[36] = test system: CCRF-CEM
[37] = test system: SW-620
[38] = test system: SF-295
[39] = test system: SK-MEL-5
[40] = test system: NCI-H460
[41] = test system: OVCAR-8
[42] = test system: NCI-H23
[43] = test system: DU-145
[44] = test system: OVCAR-3
[45] = test system: SF-268
[46] = test system: SF-539
[47] = test system: SK-OV-3
[48] = test system: KM12
[49] = test system: MDA-N
[50] = test system: HCC 2998
[51] = test system: K562
[52] = test system: UACC-62
[53] = test system: 786-0
[54] = test system: SNB-75
[55] = test system: MDA-MB-231
[56] = test system: U-251
[57] = test system: IGROV-1
[58] = test system: NCI/ADR-RES
[59] = test system: TK-10

O=C1c2ccccc2-c2nnc(-c3ccc(Cl)cc3)cc21
GI50 [1]: > 10 µM (inactive)
GI50 [2]: > 10 µM (inactive)
GI50 [3]: > 10 µM (inactive)
GI50 [4]: > 10 µM (inactive)
GI50 [5]: > 10 µM (inactive)
GI50 [6]: > 10 µM (inactive)
GI50 [7]: > 10 µM (inactive)
GI50 [8]: > 10 µM (inactive)
GI50 [9]: > 10 µM (inactive)
GI50 [10]: > 10 µM (inactive)
GI50 [11]: > 10 µM (inactive)
GI50 [12]: > 10 µM (inactive)
GI50 [13]: > 10 µM (inactive)
GI50 [14]: > 10 µM (inactive)
GI50 [15]: > 10 µM (inactive)
GI50 [16]: > 10 µM (inactive)
GI50 [17]: > 10 µM (inactive)
GI50 [18]: > 10 µM (inactive)
GI50 [19]: > 10 µM (inactive)
GI50 [20]: > 10 µM (inactive)
GI50 [21]: > 10 µM (inactive)
GI50 [22]: > 10 µM (inactive)
GI50 [23]: > 10 µM (inactive)
GI50 [24]: > 10 µM (inactive)
GI50 [25]: > 10 µM (inactive)
GI50 [26]: > 10 µM (inactive)
GI50 [27]: > 10 µM
GI50 [28]: > 10 µM (inactive)
GI50 [29]: > 10 µM (inactive)
GI50 [30]: > 10 µM (inactive)
GI50 [31]: > 10 µM (inactive)
GI50 [32]: > 10 µM (inactive)
GI50 [33]: > 10 µM (inactive)
GI50 [34]: > 10 µM (inactive)
GI50 [35]: > 10 µM (inactive)
GI50 [36]: > 10 µM (inactive)
GI50 [37]: > 10 µM (inactive)
GI50 [38]: > 10 µM (inactive)
GI50 [39]: > 10 µM (inactive)
GI50 [40]: > 10 µM (inactive)
GI50 [41]: > 10 µM (inactive)
GI50 [42]: > 10 µM (inactive)
GI50 [43]: > 10 µM (inactive)
GI50 [44]: > 10 µM (inactive)
GI50 [45]: > 10 µM (inactive)
GI50 [46]: > 10 µM (inactive)
GI50 [47]: > 10 µM (inactive)
GI50 [48]: > 10 µM (inactive)
GI50 [49]: > 10 µM (inactive)
GI50 [50]: > 10 µM (inactive)
GI50 [51]: > 10 µM (inactive)
GI50 [52]: > 10 µM (inactive)
GI50 [53]: > 10 µM (inactive)
GI50 [54]: > 10 µM (inactive)
GI50 [55]: > 10 µM (inactive)
GI50 [56]: > 10 µM (inactive)
GI50 [57]: > 10 µM (inactive)
GI50 [58]: > 10 µM (inactive)

Cc1ccc(/C=C2\CN(C)CC3C2=NC(=S)NC3c2ccc(C)cc2)cc1 (configuration not stated)
GI50 [1]: 16.7 µM (inactive)
GI50 [2]: > 100 µM (inactive)
GI50 [3]: 24 µM (inactive)
GI50 [4]: > 61.9 µM (inactive)
GI50 [5]: 30.3 µM (inactive)
GI50 [6]: > 100 µM (inactive)
GI50 [7]: 40.6 µM (inactive)
GI50 [8]: 52.1 µM (inactive)
GI50 [9]: 35.3 µM (inactive)
GI50 [10]: 34.7 µM (inactive)
GI50 [11]: > 100 µM (inactive)
GI50 [12]: 26 µM (inactive)
GI50 [13]: 37.3 µM (inactive)
GI50 [14]: 22.7 µM (inactive)
GI50 [15]: > 100 µM (inactive)
GI50 [16]: > 86.7 µM (inactive)
GI50 [17]: > 77.1 µM (inactive)
GI50 [18]: > 72.4 µM (inactive)
GI50 [19]: > 100 µM (inactive)
GI50 [20]: 31.3 µM (inactive)
GI50 [21]: > 30.7 µM (inactive)
GI50 [22]: 29.9 µM (inactive)
GI50 [23]: 1.69 µM (inactive)
GI50 [24]: 26.9 µM (inactive)
GI50 [25]: 42.5 µM (inactive)
GI50 [26]: 27.2 µM (inactive)
GI50 [27]: 36 µM
GI50 [28]: 92.7 µM (inactive)
GI50 [29]: > 100 µM (inactive)
GI50 [30]: 14.6 µM (inactive)
GI50 [31]: 46.5 µM (inactive)
GI50 [32]: 43.2 µM (inactive)
GI50 [59]: > 76.4 µM (inactive)
GI50 [33]: 62.4 µM (inactive)
GI50 [34]: 11 µM (inactive)
GI50 [35]: 9.93 µM (inactive)
GI50 [36]: 13.8 µM (inactive)
GI50 [37]: > 88.7 µM (inactive)
GI50 [38]: 61.8 µM (inactive)
GI50 [39]: 38.5 µM (inactive)
GI50 [40]: 41.8 µM (inactive)
GI50 [41]: 53.1 µM (inactive)
GI50 [42]: > 74 µM (inactive)
GI50 [43]: > 85.7 µM (inactive)
GI50 [44]: 38.6 µM (inactive)
GI50 [45]: > 74.3 µM (inactive)
GI50 [46]: > 100 µM (inactive)
GI50 [47]: > 100 µM (inactive)
GI50 [48]: 32.1 µM (inactive)
GI50 [49]: 22 µM (inactive)
GI50 [50]: 16.1 µM (inactive)
GI50 [51]: 38.7 µM (inactive)
GI50 [52]: > 100 µM (inactive)
GI50 [53]: 86.3 µM (inactive)
GI50 [54]: 60.8 µM (inactive)
GI50 [55]: > 68.7 µM (inactive)
GI50 [56]: 20.5 µM (inactive)
GI50 [57]: 13.7 µM (inactive)
GI50 [58]: 30.8 µM (inactive)
